Experimental data reported in US11491135B2 (priority 2019, dated 2022).
Read-outs that look alike come from different tables or passages of the source.

What was measured:
[1] = tested on: Clostridium perfringens ATCC13124; format: cell-based; conditions: 0.7% BHIA plates, anaerobic 37° C., 48 h
[2] = tested on: Clostridium perfringens ATCC13124; format: in vivo, Arbor Acre broiler chickens; conditions: 25 mg/kg orally every 12 h, 5 days
Clostridium perfringens = format: cell-based; conditions: 4, 8, 16 and 32 μg/ml, 30° C., 5 days, crystal violet absorbance at 570 nm

Question: What does the source list for `COc1c(O)cc2occ(-c3ccc(O)cc3)c(=O)c2c1O` [tectorigenin]?
Answer: gliding motility of Clostridium perfringens on BHIA ([1]; 8 μg/ml tectorigenin): significantly inhibit; gliding motility of Clostridium perfringens on BHIA ([1]; 32 μg/ml tectorigenin): significantly inhibit; daily weight gain of broiler chickens, treatment group vs infected group [2]: significantly higher than that of the infected group; histopathological injury of small intestine (HE staining) [2]: significantly alleviated; degree of pathological changes of the necrotic enteritis in the intestinal tract (intestinal lesion scoring, 0-6) ([2]; chickens sacrificed at 21-day-old): significantly reduced; biofilm formation of Clostridium perfringens (Clostridium perfringens): effectively inhibit
